Test results as given in US4551472A, “Unsymmetrical bis-carbamate compounds” (priority 1984, dated 1985).

Assays:
[1] = tested on: root-knot nematode, Meloidogyne incognita var. acrita; assay: Nematocide Test; note: key: 1: severe galling, equal to untreated plants; 2: moderate galling; 3: light galling; 4: very light galling; 5: no galling, perfect control; format: in vivo; settings: 3.33 m.g. per jar; cucumber, approximately 3 weeks
Procedure: The test organism used was the infective migratory larvae of the root-knot nematode, Meloidogyne incognita var. acrita, reared in the greenhouse on roots of cucumber plants. Infected plants were removed from the culture, and the roots are chopped very finely. A small amount of this inoculum was added to a pint jar containing approximately 180 cc. of soil. The jars were capped and incubated for one week at room temperature. During this period eggs of the nematode were hatched, and the larval forms migrated into the soil.
Ten ml. of the test formulation were added to each of the two jars for each dosage tested. Following the addition of chemical, the jars were capped, and the contents thoroughly mixed on a ball mill for 5 minutes.
The test compounds were formulated by a standard procedure of solution in acetone addition of an emulsifier, and dilution with water. Primary screening tests were conducted at 3.33 m.g. of the test compound per jar.
The jars were left capped at room temperature for a period of 48 hours, and the contents then transferred to 3 inch pots. Subsequently, the pots were seeded to cucumber as an indicator crop and placed in the greenhouse where they were cared for in the normal fashion for approximately 3 weeks.
The cucumber plants were then taken from the pots, the soil removed from the roots; and the amount of galling visually rated.
In the test for activity against nematodes (nem) activity was rated as follows: […]

[2] = Mammalian Toxicity, peroral toxicity to rat; format: in vivo; settings: in vivo, po, read-out: A.O. Rat LD50
Procedure: Certain compounds were also evaluated to determine their peroral toxicity to mammals by conventional methods. The representative animal selected for this experiment was the rat.

[3] = tested on: Soy; assay: Phytotoxicity Test, soy; settings: 2500 ppm spray, ten days
Procedure: (§1) Experiments were also conducted to determine the phytotoxicity of representative compounds with respect to healthy fresh plants. […] The test plants were sprayed in accordance with the procedure described above for the Mite Foliage Spray Test so as to deliver approximately 100 milliliters of test solution to the leaves of each plant tested. The sprayed plants and controls were set aside for approximately one hour to allow the foliage to dry and were then placed in the greenhouse. After ten days the plants were visually inspected to determine the extent of foliage injury. A rating of 1 indicates no perceptible injury; 5 indicates the plant was dead and ratings of 2, 3 and 4 indicate intermediate degrees of injury based upon the number and extent to which leaves were injured.

[4] = tested on: Bean; assay: Phytotoxicity Test, bean; settings: 2500 ppm spray, ten days
[5] = tested on: Corn; assay: Phytotoxicity Test, corn; settings: 2500 ppm spray, ten days
Procedure: as §1

[6] = tested on: Tom; assay: Phytotoxicity Test, tomato; settings: 2500 ppm spray, ten days
Procedure: as §1

[7] = tested on: Cotton; assay: Phytotoxicity Test, cotton; settings: 2500 ppm spray, ten days
Procedure: as §1

CSC(C)=NOC(=O)N(C)SN(C)C(=O)ON=CC(C)(C)SC [Example I, N-[2-Methylthio-2-methylpropionaldehyde O-(N-methylcarbamoyl)oxime]N-[1-methylthioacetaldehyde O-(N-methylcarbamoyl)oxime]sulfide]
Biological Activity: Nem (nematode, galling rating) [1]: 5 | LD50 [2]: 2.1 mg/kg | Phytotoxicity: Soy [3]: 1 | Phytotoxicity: Bean [4]: 2 | Phytotoxicity: Corn [5]: 1 | Phytotoxicity: Tom [6]: 1 | Phytotoxicity: Cotton [7]: 2

CSC(C)=NOC(=O)N(C)SN(C)C(=O)ON=C(C)SCCC#N [X]
Biological Activity: Nem (nematode, galling rating) [1]: 1 | LD50 [2]: 67.3 mg/kg | Phytotoxicity: Soy [3]: 1 | Phytotoxicity: Bean [4]: 1 | Phytotoxicity: Corn [5]: 1 | Phytotoxicity: Tom [6]: 1 | Phytotoxicity: Cotton [7]: 2

CN(SN(C)C(=O)Oc1cccc2c1OC(C)(C)C2)C(=O)ON=C1CSCCS1 [XXIV, N-[2-O-(N-methylcarbamoyl)oximino-1,4-dithiane]N-[2,3-dihydro-2,2-dimethyl-7-(N-methylcarbamoyloxy)benzofuran]sulfide]
Biological Activity: Nem (nematode, galling rating) [1]: 5 | LD50 [2]: 20 mg/kg | Phytotoxicity: Soy [3]: 2 | Phytotoxicity: Bean [4]: 1 | Phytotoxicity: Corn [5]: 1 | Phytotoxicity: Tom [6]: 1 | Phytotoxicity: Cotton [7]: 2

CN(SN(C)C(=O)ON=C1SC(C)(C)C(=O)N1C)C(=O)ON=C1CSCCS1 [Example III, N-[2-(O-(N-methylcarbamoyl)oximino]-1,4-dithiane]-N-[2-O-(N-methylcarbamoyl)oximino-3,5,5-trimethylthiazolidin-4-one]sulfide]
Biological Activity: Nem (nematode, galling rating) [1]: 1 | LD50 [2]: 160 mg/kg | Phytotoxicity: Soy [3]: 2 | Phytotoxicity: Bean [4]: 1 | Phytotoxicity: Corn [5]: 2 | Phytotoxicity: Tom [6]: 1 | Phytotoxicity: Cotton [7]: 2

CCCCCCCCCc1ccc(OC(=O)N(C)SN(C)C(=O)ON=C(C)SC)cc1 [XXXI]
Biological Activity: Nem (nematode, galling rating) [1]: 5 | LD50 [2]: > 640 mg/kg | Phytotoxicity: Soy [3]: 1 | Phytotoxicity: Bean [4]: 1 | Phytotoxicity: Corn [5]: 1 | Phytotoxicity: Tom [6]: 1 | Phytotoxicity: Cotton [7]: 1

CSC(C)=NOC(=O)N(C)SN(C)C(=O)Oc1ccccc1C1SCCS1 [XXXVI]
Biological Activity: Nem (nematode, galling rating) [1]: 4 | LD50 [2]: 50.4 mg/kg | Phytotoxicity: Soy [3]: 1 | Phytotoxicity: Bean [4]: 1 | Phytotoxicity: Corn [5]: 1 | Phytotoxicity: Tom [6]: 1 | Phytotoxicity: Cotton [7]: 1

CSC(C)=NOC(=O)N(C)SN(C)C(=O)Oc1ccc([N+](=O)[O-])cc1 [XII, N-[1-Methylthioacetaldehyde O-(N-methylcarbamoyl)oxime]N-[1-(N-methylcarbamoyloxy)-4-nitrobenzene]sulfide]
Biological Activity: Nem (nematode, galling rating) [1]: 1 | LD50 [2]: 453 mg/kg | Phytotoxicity: Soy [3]: 1 | Phytotoxicity: Bean [4]: 1 | Phytotoxicity: Corn [5]: 1 | Phytotoxicity: Tom [6]: 1 | Phytotoxicity: Cotton [7]: 1

C#CCOc1ccccc1OC(=O)N(C)SN(C)C(=O)ON=C(C)SC [XXXIX]
Biological Activity: Nem (nematode, galling rating) [1]: 3 | LD50 [2]: 160 mg/kg | Phytotoxicity: Soy [3]: 2 | Phytotoxicity: Bean [4]: 1 | Phytotoxicity: Corn [5]: 1 | Phytotoxicity: Tom [6]: 1 | Phytotoxicity: Cotton [7]: 2

CSC(C)=NOC(=O)N(C)SN(C)C(=O)Oc1ccc(C(C)(C)C)cc1 [IX, N-[1-Methylthioacetaldehyde O-(N-methylcarbamoyl)oxime]N-[4-tert-butylphenyl-(N-methylcarbamoyloxy)]sulfide]
Biological Activity: Nem (nematode, galling rating) [1]: 3 | LD50 [2]: 226 mg/kg | Phytotoxicity: Soy [3]: 1 | Phytotoxicity: Bean [4]: 1 | Phytotoxicity: Corn [5]: 1 | Phytotoxicity: Tom [6]: 1 | Phytotoxicity: Cotton [7]: 1

CSC(C)=NOC(=O)N(C)SN(C)C(=O)Oc1cccc2c1OC(C)(C)C2 [Example V, N-[1-Methylthioacetaldehyde O-(N-methylcarbamoyl)oxime]N-[2,2-dimethyl-2,3-dihydro-7-(N-methylcarbamoyloxy)benzofuran]sulfide]
Biological Activity: Nem (nematode, galling rating) [1]: 5 | LD50 [2]: 15.9 mg/kg | Phytotoxicity: Soy [3]: 2 | Phytotoxicity: Bean [4]: 2 | Phytotoxicity: Corn [5]: 1 | Phytotoxicity: Tom [6]: 2 | Phytotoxicity: Cotton [7]: 2

CCOC(=O)C(=NOC(=O)N(C)SN(C)C(=O)ON=C(C)SC)SC [XIII, N-[1-Methylthioacetaldehyde O-(N-methylcarbamoyl)oxime]N-[1-methylthio-1-ethoxycarbonylformaldehyde O-(N-methylcarbamoyl)oxime]sulfide]
Biological Activity: Nem (nematode, galling rating) [1]: 3 | LD50 [2]: 160 mg/kg | Phytotoxicity: Soy [3]: 2 | Phytotoxicity: Bean [4]: 1 | Phytotoxicity: Corn [5]: 1 | Phytotoxicity: Tom [6]: 1 | Phytotoxicity: Cotton [7]: 1

CSC(C)=NOC(=O)N(C)SN(C)C(=O)Oc1cccc2c1CCCC2 [XIV, N-[1-Methylthioacetaldehyde O-(N-methylcarbamoyl)oxime]N-[1-(N-methylcarbamoyloxy)-5,6,7,8-tetrahydronaphthalene]sulfide]
Biological Activity: Nem (nematode, galling rating) [1]: 4 | LD50 [2]: 285 mg/kg | Phytotoxicity: Soy [3]: 1 | Phytotoxicity: Bean [4]: 1 | Phytotoxicity: Corn [5]: 1 | Phytotoxicity: Tom [6]: 1 | Phytotoxicity: Cotton [7]: 1

CSC(C)=NOC(=O)N(C)SN(C)C(=O)Oc1cccc2ccccc12 [VII, N-[1-Methylthioacetaldehyde O-(N-methylcarbamoyl)oxime]N-[1-naphthylmethylcarbamate]sulfide]
Biological Activity: Nem (nematode, galling rating) [1]: 4 | LD50 [2]: 160 mg/kg | Phytotoxicity: Soy [3]: 2 | Phytotoxicity: Bean [4]: 1 | Phytotoxicity: Corn [5]: 1 | Phytotoxicity: Tom [6]: 1 | Phytotoxicity: Cotton [7]: 2

CSC(C)(C)C=NOC(=O)N(C)SN(C)C(=O)Oc1cccc2ccccc12 [Example VI, N-[2-Methylthio-2-methylpropionaldehyde O-(N-methylcarbamoyl)oxime]N-[1-(N-methylcarbamoyloxy)naphthalene]sulfide]
Biological Activity: Nem (nematode, galling rating) [1]: 4 | LD50 [2]: 2.97 mg/kg | Phytotoxicity: Soy [3]: 1 | Phytotoxicity: Bean [4]: 1 | Phytotoxicity: Corn [5]: 1 | Phytotoxicity: Tom [6]: 1 | Phytotoxicity: Cotton [7]: 1

CSC(C)=NOC(=O)N(C)SN(C)C(=O)Oc1ccc(SC)c(C)c1 [XV, N-[1-Methylthioacetaldehyde O-(N-methylcarbamoyl)oxime]N-[O-(N-methylcarbamoyl)-4-methylthio-3-methylphenyl]sulfide]
Biological Activity: Nem (nematode, galling rating) [1]: 4 | LD50 [2]: 40 mg/kg | Phytotoxicity: Soy [3]: 1 | Phytotoxicity: Bean [4]: 1 | Phytotoxicity: Corn [5]: 1 | Phytotoxicity: Tom [6]: 1 | Phytotoxicity: Cotton [7]: 1

COC(=O)Nc1ccc(OC(=O)N(C)SN(C)C(=O)ON=C(C)SC)cc1C(C)C [XVI, N-[1-Methylthioacetaldehyde O-(N-methylcarbamoyl)oxime]N-[4-methoxycarbonylamino-(N-methylcarbamate)-3-isopropylphenyl]sulfide]
Biological Activity: Nem (nematode, galling rating) [1]: 4 | LD50 [2]: 28.3 mg/kg | Phytotoxicity: Soy [3]: 1 | Phytotoxicity: Bean [4]: 1 | Phytotoxicity: Corn [5]: 1 | Phytotoxicity: Tom [6]: 1 | Phytotoxicity: Cotton [7]: 1
